Source: patent US10899737B2, “Piperazine carbamates and methods of making and using same” (Lundbeck La Jolla Research Center, Inc., priority 2016, dated 2021)

Assays:
MAGL [1] = molecular target: T1, MAGL (Homo sapiens, UniProt Q99685); assay: In vitro competitive activity-based protein profiling (human), MAGL; format: biochemical; settings: for inhibition at 1 µM: 1 μM inhibitor, human proteome, 30 min preincubation at 37° C, read-out: MAGL % inh. 1 μM (human); for IC50: human PC3
T1 construct: Proteomes (human prefrontal cortex or cell membrane fractions); from tissue
T1 sequence (Q99685 1-303): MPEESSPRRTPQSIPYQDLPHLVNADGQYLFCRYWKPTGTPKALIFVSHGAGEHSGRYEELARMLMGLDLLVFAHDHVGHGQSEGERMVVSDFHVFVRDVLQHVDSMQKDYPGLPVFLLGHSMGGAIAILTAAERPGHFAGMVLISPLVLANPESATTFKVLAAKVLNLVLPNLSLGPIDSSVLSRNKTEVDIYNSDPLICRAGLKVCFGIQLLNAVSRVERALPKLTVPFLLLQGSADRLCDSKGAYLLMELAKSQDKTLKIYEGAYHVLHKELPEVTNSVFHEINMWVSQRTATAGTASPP
Method in brief: (§1)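 Human prefrontal cortex or cell membrane proteomes (1.0-2.0 mg/mL protein) preincubated 30 min at 37° C with inhibitor, then labeled 30 min RT with FP-Rh or JW912 probe. After SDS-PAGE, activity taken from fluorescent band intensity for each enzyme.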

ABHD6 [2] = molecular target: T2, ABHD6 (Homo sapiens, UniProt Q9BV23); assay: In vitro competitive activity-based protein profiling (human), ABHD6; format: biochemical; settings: human PC3
T2 construct: Proteomes (human prefrontal cortex or cell membrane fractions); endogenous in cells; human prefrontal cortex
T2 sequence (Q9BV23 1-337): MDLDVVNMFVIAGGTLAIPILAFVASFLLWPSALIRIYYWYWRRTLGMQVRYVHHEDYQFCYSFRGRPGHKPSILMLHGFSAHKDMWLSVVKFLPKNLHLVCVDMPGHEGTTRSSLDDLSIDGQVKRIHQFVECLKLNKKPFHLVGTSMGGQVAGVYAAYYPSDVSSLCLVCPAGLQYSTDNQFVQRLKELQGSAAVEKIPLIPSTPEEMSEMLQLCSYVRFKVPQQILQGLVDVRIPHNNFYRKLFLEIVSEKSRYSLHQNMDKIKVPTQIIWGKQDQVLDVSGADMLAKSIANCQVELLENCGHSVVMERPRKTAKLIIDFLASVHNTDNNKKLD
Method in brief: as §1

MAGL [3] = molecular target: T3, MAGL (Mus musculus, UniProt O35678); assay: In vitro competitive activity-based protein profiling (mouse), MAGL; format: biochemical; settings: for inhibition at 1 µM: 1 μM inhibitor, mouse brain membrane fraction or cell lysates, read-out: MAGL % inh. 1 μM (mouse); for IC50: mouse proteome
T3 construct: Proteomes (mouse brain membrane fraction or cell lysates); from tissue; host or cells: mouse brain membrane fraction or cell lysates
T3 sequence (O35678 1-303): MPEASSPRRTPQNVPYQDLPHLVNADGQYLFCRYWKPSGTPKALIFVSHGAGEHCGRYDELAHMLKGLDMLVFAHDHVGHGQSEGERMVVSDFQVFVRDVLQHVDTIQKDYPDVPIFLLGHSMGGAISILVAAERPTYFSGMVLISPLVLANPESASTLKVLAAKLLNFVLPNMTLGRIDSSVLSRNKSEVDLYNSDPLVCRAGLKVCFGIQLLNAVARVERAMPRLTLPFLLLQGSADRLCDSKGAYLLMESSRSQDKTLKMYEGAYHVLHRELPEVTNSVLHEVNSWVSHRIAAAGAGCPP
Method in brief: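 Mouse brain membrane fraction or cell lysate proteomes (50 μL, 1.0 mg/mL total protein) were preincubated with inhibitors at varying concentrations for 30 min at 37° C. FP-Rh (1.0 μL, 50 μM in DMSO) was then added for a further 30 min at 37° C. Samples were quenched with 4× SDS loading buffer and resolved by SDS-PAGE. MAGL activity was quantified from fluorescent gel band intensity using ImageJ 1.49 k.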

ABHD6 [4] = molecular target: T4, ABHD6 (Mus musculus, UniProt Q8R2Y0); assay: In vitro competitive activity-based protein profiling (mouse), ABHD6; format: biochemical; settings: 1 μM inhibitor, mouse brain membrane fraction or cell lysates; read-out: ABHD6 % inh. 1 μM (mouse)
T4 construct: Proteomes (mouse brain membrane fraction or cell lysates); from tissue; host or cells: mouse brain membrane fraction or cell lysates
T4 sequence (Q8R2Y0 1-336): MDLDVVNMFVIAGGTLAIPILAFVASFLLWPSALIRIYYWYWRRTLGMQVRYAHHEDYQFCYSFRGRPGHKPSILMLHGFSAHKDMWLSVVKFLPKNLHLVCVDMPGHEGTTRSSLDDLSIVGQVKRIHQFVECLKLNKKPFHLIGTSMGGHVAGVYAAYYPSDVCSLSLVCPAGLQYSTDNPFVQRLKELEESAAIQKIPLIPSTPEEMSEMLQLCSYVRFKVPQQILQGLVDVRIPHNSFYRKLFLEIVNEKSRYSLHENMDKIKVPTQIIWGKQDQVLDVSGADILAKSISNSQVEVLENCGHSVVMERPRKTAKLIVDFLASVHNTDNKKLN
Method in brief: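 Mouse brain membrane proteome or cell lysate (1.0 mg/mL protein) preincubated 30 min at 37 °C with inhibitor, then labelled 30 min at 37 °C with FP-rhodamine probe. Remaining MAGL and ABHD6 activity quantified by in-gel fluorescence band intensity after SDS-PAGE; values are % inhibition at 1 μM.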

MAGL [5] = molecular target: T3, MAGL; assay: Mouse brain proteomes from inhibitor treated mice, MAGL inhibition; format: in vivo; settings: 5 mg/kg oral gavage, C57Bl/6J mouse brain, 4 h following administration; read-out: MAGL % inh. 5 mg/kg (mouse)
Procedure: Preparation of Mouse Brain Proteomes from Inhibitor Treated Mice.
Inhibitors were administered to wild-type C57Bl/6J by oral gavage in a vehicle of polyethylene glycol. Each animal was sacrificed 4 h following administration and brain proteomes were prepared and analyzed according to previously established methods (See Niphakis, M. J., et al. (2011) ACS Chem. Neurosci. and Long, J. Z., et al. Nat. Chem. Biol. 5:37-44).

Structure (SMILES)	inhibition at 1 µM (MAGL [1]) [%]	IC50 (MAGL [1]) [µM]	IC50 (ABHD6 [2]) [µM]	inhibition at 1 µM (MAGL [3]) [%]	inhibition at 1 µM (ABHD6 [4]) [%]	inhibition at 5 mg/kg (MAGL [5]) [%]	IC50 (MAGL [3]) [µM]
O=C(OC(C(F)(F)F)C(F)(F)F)N1CCN(Cc2ccc(C(F)(F)F)cc2C2(C(=O)O)CCOCC2)CC1 [Example 45, 4-(2-((4-(((1,1,1,3,3,3-hexafluoropropan-2-yl)oxy)carbonyl)piperazin-1-yl)methyl)-5-(trifluoromethyl)phenyl)tetrahydro-2H-pyran-4-carboxylic acid]	≥ 75	≤ 0.1	1 to 10	≥ 75	0 to 25	≥ 75	–
O=C(O)C1CCN(C(=O)c2cc(CN3CCN(C(=O)OC(C(F)(F)F)C(F)(F)F)CC3)ccc2C(F)(F)F)CC1 [Example 46, 1-(5-((4-(((1,1,1,3,3,3-hexafluoropropan-2-yl)oxy)carbonyl)piperazin-1-yl)methyl)-2-(trifluoromethyl)benzoyl)piperidine-4-carboxylic acid]	≥ 75	≤ 0.1	1 to 10	≥ 75	0 to 25	0 to 25	–
CC1(NCC(=O)O)CCN(c2cc(C(F)(F)F)ccc2CN2CCN(C(=O)OC(C(F)(F)F)C(F)(F)F)CC2)CC1 [Example 51, (1-(2-((4-(((1,1,1,3,3,3-hexafluoropropan-2-yl)oxy)carbonyl)piperazin-1-yl)methyl)-5-(trifluoromethyl)phenyl)-4-methylpiperidin-4-yl)glycine]	≥ 75	≤ 0.1	1 to 10	≥ 75	0 to 25	0 to 25	–
CC1(C(=O)O)CCCN(c2cc(C(F)(F)F)ccc2CN2CCN(C(=O)OC(C(F)(F)F)C(F)(F)F)CC2)C1 (centres unmarked) [Example 54, 1-(2-((4-(((1,1,1,3,3,3-hexafluoropropan-2-yl)oxy)carbonyl)piperazin-1-yl)methyl)-5-(trifluoromethyl)phenyl)-3-methylpiperidine-3-carboxylic acid]	≥ 75	≤ 0.1	1 to 10	≥ 75	50 to 75	≥ 75	–
CC1(C(=O)O)CCN(c2cc(C(F)(F)F)ccc2CN2CCN(C(=O)OC(C(F)(F)F)C(F)(F)F)CC2)C1 (centres unmarked) [Example 55, 1-{2-[(4-{[(1,1,1,3,3,3-hexafluoropropan-2-yl)oxy]carbonyl}piperazin-1-yl)methyl]-5-(trifluoromethyl)phenyl}-3-methylpyrrolidin-3-carboxylic acid]	≥ 75	≤ 0.1	0.1 to 1	≥ 75	≥ 75	25 to 50	–
CC1(C(=O)O)CN(c2cc(C(F)(F)F)ccc2CN2CCN(C(=O)OC(C(F)(F)F)C(F)(F)F)CC2)CCO1 (centres unmarked) [Example 57, 4-{2-[(4-{[(1,1,1,3,3,3-hexafluoropropan-2-yl)oxy]carbonyl}piperazin-1-yl)methyl]-5-(trifluoromethyl)phenyl}-2-methylmorpholine-2-carboxylic acid]	≥ 75	≤ 0.1	1 to 10	≥ 75	0 to 25	0 to 25	≤ 0.1
Cc1ccc(CN2CCN(C(=O)OC(C(F)(F)F)C(F)(F)F)CC2)c(N2CCC(C(=O)O)CC2)c1F [Example 59, 1-(2-fluoro-6-((4-(((1,1,1,3,3,3-hexafluoropropan-2-yl)oxy)carbonyl)piperazin-1-yl)methyl)-3-methylphenyl)piperidine-4-carboxylic acid]	≥ 75	≤ 0.1	1 to 10	≥ 75	≥ 75	≥ 75	–
O=C(O)C1CCN(c2c(CN3CCN(C(=O)OC(C(F)(F)F)C(F)(F)F)CC3)ccc(Cl)c2F)CC1 [Example 62, 1-(3-chloro-2-fluoro-6-((4-(((1,1,1,3,3,3-hexafluoropropan-2-yl)oxy)carbonyl)piperazin-1-yl)methyl)phenyl)piperidine-4-carboxylic acid]	≥ 75	≤ 0.1	1 to 10	≥ 75	50 to 75	≥ 75	–
CC1(C(=O)O)CCN(c2cc(Cl)ccc2CN2CCN(C(=O)OC(C(F)(F)F)C(F)(F)F)CC2)CC1 [Example 63, 1-(5-chloro-2-((4-(((1,1,1,3,3,3-hexafluoropropan-2-yl)oxy)carbonyl)piperazin-1-yl)methyl)phenyl)-4-methylpiperidine-4-carboxylic acid]	≥ 75	≤ 0.1	0.1 to 1	≥ 75	50 to 75	≥ 75	–
O=C(O)[C@@H]1CCCN1C1CCN(c2cc(C(F)(F)F)ccc2CN2CCN(C(=O)OC(C(F)(F)F)C(F)(F)F)CC2)CC1 [Example 64, (1-(2-((4-(((1,1,1,3,3,3-hexafluoropropan-2-yl)oxy)carbonyl)piperazin-1-yl)methyl)-5-(trifluoromethyl)phenyl)piperidin-4-yl)proline]	≥ 75	≤ 0.1	1 to 10	≥ 75	50 to 75	0 to 25	–
O=C(O)C1CCN(c2cc(OC(F)(F)F)ccc2CN2CCN(C(=O)OC(C(F)(F)F)C(F)(F)F)CC2)CC1 [Example 67, 1-(2-((4-(((1,1,1,3,3,3-hexafluoropropan-2-yl)oxy)carbonyl)piperazin-1-yl)methyl)-5-(trifluoromethoxy)phenyl)piperidine-4-carboxylic acid]	≥ 75	≤ 0.1	1 to 10	≥ 75	50 to 75	≥ 75	≤ 0.1
O=C(O)[C@@H]1CCCN(c2cc(C(F)(F)F)ccc2CN2CCN(C(=O)OC(C(F)(F)F)C(F)(F)F)CC2)C1 [Example 70, (R)-1-(2-((4-(((1,1,1,3,3,3-hexafluoropropan-2-yl)oxy)carbonyl)piperazin-1-yl)methyl)-5-(trifluoromethyl)phenyl)piperidine-3-carboxylic acid]	≥ 75	≤ 0.1	1 to 10	≥ 75	0 to 25	≥ 75	–
